Reference: patent US20250170218A1, “STABLE PHARMACEUTICAL COMPOSITION OF RECEPTOR AGONIST, AND PREPARATION METHOD AND APPLICATION THEREOF” (JIANGSU HANSOH PHARMACEUTICAL GROUP CO., LTD., priority 2022, published 2025)
Where two headings read alike, the source gives them in different places. Numbered stars: 1 amine (or outer) side, 2 acyl side, 3 side chain; on linkers, the order of the positions; unused ones are H or OH. Square brackets hold non-standard residues; d marks the D form. Side chains are listed from the residue outwards. Peptide text beside a SMILES is read from it. * marks the point of attachment. ξ: configuration not given here. C20 diacid = O=C(O)CCCCCCCCCCCCCCCCCCC(=O)*; γGlu = O=C(O)[C@H](CCC(=O)[*:2])N[*:1]; AEEA = NCCOCCOCC(=O)O; Aib = CC(C)(N)C(=O)O; ξP = O=C(O)C1CCCN1

Legend:
[1] = Pharmacokinetic study in cynomolgus monkeys after single subcutaneous or intravenous injection; format: in vivo
Description: The administration doses for 4 groups, i.e., intravenous injection group, low-dose subcutaneous injection group, medium-dose subcutaneous group and high-dose subcutaneous injection group, were 0.1, 0.03, 0.1, and 0.3 mg/kg, respectively, all by single administration.

[2] = Influencing factor test of the bulk drug; format: physicochemical; conditions: high temperature or illumination
[3] = acids, alkalis, oxidation or high temperature

CC[C@H](C)[C@H](NC(=O)[C@H](CCCCN)NC(=O)[C@H](CCC(=O)O)NC(=O)[C@H](CC(C)C)NC(=O)[C@H](Cc1ccc(O)cc1)NC(=O)[C@@H](NC(=O)[C@H](CO)NC(=O)[C@H](Cc1ccc(O)cc1)NC(=O)[C@H](CC(=O)O)NC(=O)[C@H](CO)NC(=O)[C@@H](NC(=O)[C@H](Cc1ccccc1)NC(=O)[C@@H](NC(=O)CNC(=O)[C@H](CCC(=O)O)NC(=O)C(C)(C)NC(=O)[C@@H](N)Cc1ccc(O)cc1)[C@@H](C)O)[C@@H](C)O)[C@@H](C)CC)C(=O)N[C@@H](C)C(=O)N[C@@H](C)C(=O)N[C@@H](CCC(N)=O)C(=O)N[C@@H](CCC(=O)O)C(=O)N[C@@H](Cc1ccccc1)C(=O)N[C@H](C(=O)N[C@@H](CC(N)=O)C(=O)N[C@@H](Cc1c[nH]c2ccccc12)C(=O)N[C@@H](CC(C)C)C(=O)N[C@@H](CC(C)C)C(=O)N[C@@H](C)C(=O)NCC(=O)NCC(=O)N1CCCC1C(=O)N[C@@H](CO)C(=O)N[C@@H](CO)C(=O)NCC(=O)N[C@@H](C)C(=O)N1CCC[C@H]1C(=O)N1CCCC1C(=O)N1CCC[C@H]1C(=O)N[C@@H](CO)C(=O)N[C@@H](CCCCNC(=O)COCCOCCNC(=O)COCCOCCNC(=O)CC[C@H](NC(=O)CCCCCCCCCCCCCCCCCCC(=O)O)C(=O)O)C(N)=O)C(C)C (some centres unmarked) [Active ingredient] (H-Y[Aib]EGTFTSDYSIYLEKIAAQEFVNWLLAGG[ξP]SSGAP[ξP]PSK([AEEA-AEEA-γGlu-C20 diacid])-NH2)
exposure (AUClast) in animals of different sexes [1]: no statistical difference | Vd ([1]; cynomolgus monkey, in vivo, intravenous, 0.1 mg/kg, single, read-out: apparent volume of distribution Vd): 0.066 to 0.0681 L/kg | clearance ([1]; cynomolgus monkey, in vivo, intravenous, 0.1 mg/kg, single, read-out: clearance CL): 21.4 to 22.3 mL/day/kg | half-life ([1]; cynomolgus monkey, in vivo, intravenous, 0.1 mg/kg, single, read-out: elimination half-life t1/2): 2.11 to 2.15 days | half-life ([1]; cynomolgus monkey, in vivo, sc, single subcutaneous injection, read-out: elimination half-life T1/2): 2.04 to 2.73 days | Tmax ([1]; cynomolgus monkey, in vivo, sc, single subcutaneous injection, read-out: time to peak drug concentration Tmax): 13.3 to 18 h | polymer in influencing factor test [2]: polymer growth | degradation in stressing test [3]: significant degradations
